Data reported in patent US4812442A, “Tripeptide renin inhibitors” (priority 1987, dated 1989).
Structures can show the parent of a compound that is named as a salt. Square brackets hold non-standard residues; d marks the D form. Peptide text beside a SMILES is read from it. * marks the point of attachment. Sta = CC(C)C[C@H](N)[C@@H](O)CC(=O)O; Isovaleryl = CC(C)CC(=O)*

Target: T1, renin (Homo sapiens, UniProt P00797)
T1 sequence (P00797 67-406): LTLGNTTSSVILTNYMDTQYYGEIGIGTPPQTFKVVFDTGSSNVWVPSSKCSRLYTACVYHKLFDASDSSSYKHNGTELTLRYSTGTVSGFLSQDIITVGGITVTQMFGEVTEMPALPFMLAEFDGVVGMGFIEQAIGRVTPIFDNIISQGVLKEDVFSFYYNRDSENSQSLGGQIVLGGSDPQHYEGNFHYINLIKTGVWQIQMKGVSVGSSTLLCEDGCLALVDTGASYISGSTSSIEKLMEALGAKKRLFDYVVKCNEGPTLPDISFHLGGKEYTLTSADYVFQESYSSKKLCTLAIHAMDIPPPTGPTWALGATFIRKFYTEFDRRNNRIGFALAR
Assay: Renin inhibition IC50 (methods of J. Med. Chem., 1985, 28, 1789-1790)
Assay type: biochemical
Conditions: not given
Description: The following examples are intended to be representative and not limiting. IC50 results were obtained according to the methods described in J. Med. Chem., 1985, 28, 1789-1790.

| Structure (SMILES) | IC50 [nM] |
| --- | --- |
| CC(C)(C)OC(=O)N[C@@H](Cc1ccccc1)C(=O)N[C@@H](Cc1c[nH]cn1)C(=O)N[C@@H](CC1CCCCC1)[C@@H](O)CC(=O)NC1C[N+]2(C)CCC1CC2 (stereo partly drawn) [Example 2, N^α -t-butoxycarbonyl-L-phenylalanyl-L-histidyl-(3S,4S)-4-amino-5-cyclohexyl-3-hydroxy-pentanoyl-1-methylquinuclidium-3-yl amide acetate] | 38 |
| CC(C)(C)OC(=O)N[C@@H](Cc1ccccc1)C(=O)N[C@@H](Cc1c[nH]cn1)C(=O)N[C@@H](CC1CCCCC1)[C@@H](O)CC(=O)NC1C[N+]2(CCCCO)CCC1CC2 (stereo partly drawn) [Example 3, N^α -t-butoxycarbonyl-L-phenylalanyl-L-histidyl(3S,4S)-4-amino-5-cyclohexyl-3-hydroxypentanoyl-1-(4-hydroxybutyl)-quinuclidinium-3-yl amide acetate] | 33 |

Same assay, conditions: renin inhibition; read-out: IC50

| IC50 [nM] | Structure (SMILES) |
| --- | --- |
| 67 | CC(C)(C)OC(=O)N[C@@H](Cc1ccccc1)C(=O)N[C@@H](Cc1c[nH]cn1)C(=O)N[C@@H](CC1CCCCC1)[C@@H](O)CC(=O)N1CC[S+]([O-])CC1 [Example 6, Boc-Phe-His-ACHPA-4-thiamorpholine-1-oxide] |
| 55 | CC(C)(C)OC(=O)N[C@@H](Cc1ccccc1)C(=O)N[C@@H](Cc1c[nH]cn1)C(=O)N[C@@H](CC1CCCCC1)[C@@H](O)CC(=O)N1CCS(=O)(=O)CC1 [Example 7, Boc-Phe-His-ACHPA-4-thiamorpholine-1,1-dioxide] |
| 33 | CC[C@H](C)[C@@H](CN)NC(=O)C[C@H](O)[C@H](CC1CCCCC1)NC(=O)[C@H](Cc1c[nH]cn1)NC(=O)[C@H](Cc1ccccc1)NC(=O)OC(C)(C)C [Example 11] |
| 5 | CC[C@H](C)[C@@H](CN(C)C)NC(=O)C[C@H](O)[C@H](CC1CCCCC1)NC(=O)[C@H](Cc1c[nH]cn1)NC(=O)[C@H](Cc1ccccc1)NC(=O)OC(C)(C)C [Example 12] |
| 2000 | CC(C)C[C@H](NC(=O)[C@H](Cc1ccccc1)NC(=O)[C@H](Cc1ccccc1)NC(=O)OC(C)(C)C)[C@@H](O)CC(=O)N1CCN(c2cccc[n+]2[O-])CC1 [Example 17] |
| 15 | CC[C@H](C)[C@@H](C[N+](C)(C)C)NC(=O)C[C@H](O)[C@H](CC1CCCCC1)NC(=O)[C@H](Cc1c[nH]cn1)NC(=O)[C@H](Cc1ccccc1)NC(=O)OC(C)(C)C [Example 18, di-acetate salt] |
| 10 | CC[C@H](C)[C@@H](C[N+](C)(C)CCO)NC(=O)C[C@H](O)[C@H](CC1CCCCC1)NC(=O)[C@H](Cc1c[nH]cn1)NC(=O)[C@H](Cc1ccccc1)NC(=O)OC(C)(C)C [Example 19, acetate salt] |

| Structure (SMILES) | IC50 [nM] |
| --- | --- |
| CC(C)(C)OC(=O)N[C@@H](Cc1ccccc1)C(=O)N[C@@H](Cc1c[nH]cn1)C(=O)N[C@@H](CC1CCCCC1)[C@@H](O)CC(=O)NC1CN2CCC1CC2 (stereo partly drawn) [Example 1, N^α -t-butoxycarbonyl-L-phenylalanyl-L-histidyl(3S,4S)-4-amino-5-cyclohexyl-3-hydroxypentanoyl-3-quinuclidinyl amide] | 33 |
| CC(C)(C)OC(=O)N[C@@H](Cc1ccccc1)C(=O)N[C@@H](Cc1c[nH]cn1)C(=O)N[C@@H](CC1CCCCC1)[C@@H](O)CC(=O)NC1C[N+]2([O-])CCC1CC2 (stereo partly drawn) [Example 4, N^α -t-butoxycarbonyl-L-phenylalanyl-L-histidyl-(3S,4S)-4-amino-5-cyclohexyl-3-hydroxypentanoyl-quinuclidinium-3-yl-1-oxide amide] | 20 |
| CC(C)(C)OC(=O)N[C@@H](Cc1ccccc1)C(=O)N[C@@H](Cc1c[nH]cn1)C(=O)N[C@@H](CC1CCCCC1)[C@@H](O)CC(=O)N1CCSCC1 [Example 5, Boc-Phe-His-ACHPA-4-thiamorpholine] | 19 |
| CC[C@H](C)NC(=O)C[C@H](O)[C@H](CC1CCCCC1)NC(=O)[C@H](Cc1c[nH]cn1)NC(=O)[C@H](Cc1ccccc1)NC(=O)OC(C)(C)C [Example 9, N^α -t-butoxycarbonyl-L-phenylalanyl-L-histidyl(3S,4S)-4-amino-5-cyclohexyl-3-hydroxypentanoyl-2S-(+)-butyl amide] | 32 |

Tested on: nephrectomized rats
Assay: not given
Conditions: after the injection of hog renin into nephrectomized rats; cited from earlier work

| Structure (SMILES) | effect on blood pressure in vivo |
| --- | --- |
| CC(C)CC(=O)N[C@H](C(=O)N[C@H](C(=O)N[C@@H](CC(C)C)[C@@H](O)CC(=O)N[C@@H](C)C(=O)N[C@@H](CC(C)C)[C@@H](O)CC(=O)O)C(C)C)C(C)C [pepstatin] (Isovaleryl-VV[Sta]A[Sta]-OH) | reduces blood pressure |
